Measurements as given in paper PMC12085399, “Quantitative in vitro-to-in vivo extrapolation of human adrenergic and trace amine-associated receptor 1 potencies of pre-workout supplement ingredients using physiologically based kinetic modelling-based reverse dosimetry” (Archives of Toxicology, 2025).
Where two headings read alike, the source gives them in different places.

Experiments:
ADRβ2 = experiment: PBK modelling-based reverse dosimetry of in vitro EC50 to ED50, ADRβ2; settings: predicted human oral ED50 from in vitro EC50 (Pinckaers et al. [2024]) and modelled Cmax plasma venous
From the text: (§1) The in vitro effect concentrations (EC50), for activation of the α1A, α1B, α1D, α2A, α2B, β1 and β2 ADR activation and the activation of TAAR1, were obtained from our previous study (Pinckaers et al. [2024]).

ADRα1D = experiment: PBK modelling-based reverse dosimetry of in vitro EC50 to ED50, ADRα1D; settings: predicted human oral ED50 from in vitro EC50 (Pinckaers et al. [2024]) and modelled Cmax plasma venous
From the text: as §1

ADRβ1 [1] = experiment: PBK modelling-based reverse dosimetry of in vitro EC50 to ED50, ADRβ1; set-up: species or system human; settings: for ADRβ1 ED50: predicted human oral ED50 from in vitro EC50 (Pinckaers et al. [2024]) and modelled Cmax plasma venous
[2] = In vitro hepatic clearance by human liver S9 (compound depletion); assay type: in vitro ADME; settings: for Predicted intrinsic hepatic metabolic clearance CLmet: CLint,u scaled to a whole liver, 121 mg HLS9/g liver; for Predicted intrinsic hepatic metabolic clearance CLmet / k el at 1 µM / microsomal CLint at 1 µM: human; for metabolism in incubations without co-factor mix: HLS9 without co-factor mix; for k el at 1 µM: pH 7.4
Protocol: In vitro intrinsic hepatic clearance (CLint) values of the phenethylamine analogues were determined in experiments with pooled human liver S9 (HLS9; Corning, Woburn, MA, USA and Gibco, USA), by measuring the rate of compound depletion. Stocks of 1 mM PEA compounds were prepared in DMSO and stocks of 10 mg/mL alamethicin were prepared in methanol. The final incubation mixtures consisted of 1 µM of PEA compound (0.1% DMSO) in 100 mM potassium phosphate buffer with 5 mM magnesium chloride (pH 7.4) supplemented with 0.025 mg/mL alamethicin (0.25% methanol) and 0.1–2 mg/mL HLS9. […] Incubation mixtures were first pre-incubated at 37 °C in a shaking incubator at 300 rpm for 5 min. After 5 min, the reaction was initiated by adding a co-factor mix in supplemented buffer with final concentrations of 3 mM nicotinamide adenine dinucleotide phosphate (NADPH; for oxidation, reduction and hydrolysis), 5 mM uridine diphosphate glucuronic acid (UDPGA; for glucuronidation), 0.2 mM adenosine 3’-phosphate 5’-phosphosulfate lithium salt hydrate (PAPS; for sulfation) and 0.2 mM S-(5’-Adenosyl)-L-methionine p-toluenesulfonate salt (SAM; for methylation). The final incubation volume was 100 µL and incubations were performed in 1.5 mL Safe-Lock Eppendorf tubes (Eppendorf) in a shaking incubator (300 rpm) at 37 °C (Eppendorf Thermomixer). Incubations were terminated by adding 100 µL ice-cold acetonitrile after, 0, 2.5, 5, 10, 20, 40 and 60 min. Then, samples were vortexed, put on ice and stored at -20 °C until the day of the LC–MS/MS analysis. Controls of incubation mixtures without HLS9 or mixtures without co-factors were also included. Two independent experiments, both in duplicate, were performed on different days. On the day of the LC–MS/MS analysis, samples were thawed and centrifuged at 15,000 rpm for 10 min. The supernatant was collected in glass insert vials for LC injection (BGB Analytik, Harderwijk, The Netherlands). Details on the methods of the LC–MS/MS analysis are described in Sect. "LC–MS/MS analysis". After determining the PEA (analogue) amount at the different time points, the CLint was calculated. The natural logarithm of compound concentrations was plotted against time and the slope of this curve represented the elimination rate constant k (in 1/min). The half-life (t1/2 in minutes) was calculated by: ln (2)/k (in 1/min). The volume of incubation (V) in µL/mg protein was determined by: 1000 / HLS9 concentration (in mg/mL). Finally, CLint could be calculated by: CLintμL/min/mg protein=VμL/mg protein∗ln2/t1/2min.
The fraction unbound in these in vitro liver clearance incubations was calculated with the method of (Hallifax and Houston [2006]) in which unspecific binding in HLS9 incubations was assumed to be the same as in liver microsomal incubations. The in vitro obtained HLS9 CLint values were corrected for protein binding in the HLS9 incubation and were scaled to a whole liver by using a scaling factor of 121 mg HLS9/g liver (Houston and Galetin [2008]).

ADRβ1 [3] = system: ADRβ1; set-up: method as in Pinckaers et al. [2024]; settings: in vitro ADRβ1 activation assays, Fig. 6E; ref Pinckaers et al. [2024]; cited from earlier work
[4] = human, t = 0.70 h, escalating intravenous infusion 0.5, 1, 2, 4 µg/kg bw/min, 3 min each; ref Feng et al. [2012]; cited from earlier work
[5] = human; ref Faraj et al. [1979]; cited from earlier work
[6] = Generic human PBK model with oral dosing, simulated venous plasma concentration; settings: oral dose of 5.7 mg/kg bw, observed data of Rafehi et al. [2019]
From the text: The PBK model codes used in this study are presented in the Supplementary data. For the prediction of internal concentrations of the PEA analogues a generic PBK model for humans with oral dosing was used. The PBK model code was adopted from (Jones and Rowland-Yeo [2013]). In general, the body compartments described in the model are: adipose, bone, brain, gut, heart, kidney, liver, lung, muscle, skin, spleen, testes, venous, arterial, plasma and a rest compartment. The concentrations in these compartments were modelled as blood-flow limited, in which it is assumed that the total concentration in the tissue is in equilibrium with the concentration in the systemic circulation at a steady state. The concentration in the circulation is compound-specific and is based on the plasma partition coefficients. The blood flow rate, the tissue volume and the plasma partition coefficients determine the rate of reaching the steady-state (Jones and Rowland-Yeo [2013]). The model was converted to RStudio (version 2023.12.1 Build 402, “Ocean Storm Release”) solving the differential equations with the R rxode2 package (with tidyverse packages). Cliver free was defined as Cliver/Kp liver * Fup instead of Cliver* Fup. […]

[7] = full reaction mix (HLS9 and co-factor mix), 1 µM, HLS9 concentration per compound (0.10-2 mg/mL), read-out: elimination rate constant k (converted)
[8] = s9, pH 7.4, CLint app corrected for unspecific protein (HLS9) binding, read-out: In vitro CLint,u
[9] = s9, pH 7.4, human liver S9 with co-factor mix (NADPH, UDPGA, PAPS, SAM), 1 µM, read-out: In vitro CLint app

| Compound | ADRβ2 ED50 (ADRβ2) | ADRα1D ED50 (ADRα1D) | ADRβ1 ED50 (ADRβ1 [1]) | Predicted intrinsic hepatic metabolic clearance CLmet [2] | metabolism in incubations without co-factor mix [2] | k el at 1 µM [2, 7] | microsomal CLint at 1 µM [2, 8] | microsomal CLint at 1 µM [2, 9] | in vitro potency, times more potent than isopropyloctopamine (ADRβ1 [3]) | observed average plasma concentration [4] | predicted equivalent oral dose, times lower than the dose of higenamine (ADRβ1 [1]; ADRβ1, dose needed to reach the internal effect concentration) | k el at 1 µM [2] | metabolic clearance observed in humans [5] | over-prediction of the Cmax plasma compared to the observed average [6] |
| --- | --- | --- | --- | --- | --- | --- | --- | --- | --- | --- | --- | --- | --- | --- |
| CN(C)CCc1ccccc1 [Dimethylphenethylamine, N,N-dimethylphenethylamine] | – (compounds with a dash (-) did not activate the receptors in vitro at concentrations ≤ 300 µM) | 5.60 mg/kg bw | – (compounds with a dash (-) did not activate the receptors in vitro at concentrations ≤ 300 µM) | 245 L/h | metabolized in incubations without co-factor mix | 0.000667 s⁻¹ | 23 µL/min/mg | 20 µL/min/mg |  |  |  |  |  |  |
| CNCC(O)c1ccccc1 (stereo not drawn) [Halostachine, halostachine] | – (compounds with a dash (-) did not activate the receptors in vitro at concentrations ≤ 300 µM) | 2.52 mg/kg bw | – (compounds with a dash (-) did not activate the receptors in vitro at concentrations ≤ 300 µM) | 416 L/h | metabolized in incubations without co-factor mix | 0.000312 s⁻¹ | 39 µL/min/mg | 37.4 µL/min/mg |  |  |  |  |  |  |
| Oc1ccc(CC2NCCc3cc(O)c(O)cc32)cc1 (stereo not drawn) [Higenamine, higenamine] | 2.92 mg/kg bw | – (compounds with a dash (-) did not activate the receptors in vitro at concentrations ≤ 300 µM) | 0.211 mg/kg bw | 261 L/h |  | 0.000367 s⁻¹ | 24.4 µL/min/mg | 22 µL/min/mg | 3.5 times | 0.5 ng/mL |  |  |  |  |
| CN(C)CCc1ccc(O)cc1 [Hordenine, hordenine] | – (compounds with a dash (-) did not activate the receptors in vitro at concentrations ≤ 300 µM) | 11.5 mg/kg bw | – (compounds with a dash (-) did not activate the receptors in vitro at concentrations ≤ 300 µM) | 27.0 L/h |  | 7.33e-05 s⁻¹ | 2.53 µL/min/mg | 2.2 µL/min/mg |  |  |  |  |  |  |
| CC(C)NCC(O)c1ccc(O)cc1 (stereo not drawn) [Isopropyloctopamine, isopropyloctopamine] | – (compounds with a dash (-) did not activate the receptors in vitro at concentrations ≤ 300 µM) | – (compounds with a dash (-) did not activate the receptors in vitro at concentrations ≤ 300 µM) |  | 27.3 L/h |  |  | 2.56 µL/min/mg | 2.15 µL/min/mg |  |  | 2.5 times | 7.17e-05 s⁻¹ |  |  |
| CNC(C)C(O)c1ccc(O)cc1 (stereo not drawn) [Methylsynephrine] | – (compounds with a dash (-) did not activate the receptors in vitro at concentrations ≤ 300 µM) | – (compounds with a dash (-) did not activate the receptors in vitro at concentrations ≤ 300 µM) | 16.9 mg/kg bw | 19.7 L/h |  | 4.97e-05 s⁻¹ | 1.84 µL/min/mg | 1.49 µL/min/mg |  |  |  |  |  |  |
| NCCc1ccccc1 [Phenethylamine, phenethylamine] | – (compounds with a dash (-) did not activate the receptors in vitro at concentrations ≤ 300 µM) | – (compounds with a dash (-) did not activate the receptors in vitro at concentrations ≤ 300 µM) | – (compounds with a dash (-) did not activate the receptors in vitro at concentrations ≤ 300 µM) | 2598 L/h | metabolized in incubations without co-factor mix | 0.000402 s⁻¹ | 243 µL/min/mg | 241 µL/min/mg |  |  |  |  |  |  |
| NCCc1ccc(O)cc1 [Tyramine, tyramine] | – (compounds with a dash (-) did not activate the receptors in vitro at concentrations ≤ 300 µM) | – (compounds with a dash (-) did not activate the receptors in vitro at concentrations ≤ 300 µM) |  | 841 L/h | metabolized in incubations without co-factor mix | 0.000322 s⁻¹ | 78.8 µL/min/mg | 77.2 µL/min/mg |  |  |  |  | 792 L/h | 3.78 fold |
| CNCC(O)c1ccc(O)cc1 (stereo not drawn) [p-Synephrine, Synephrine] | – (compounds with a dash (-) did not activate the receptors in vitro at concentrations ≤ 300 µM) | 2.35 mg/kg bw |  | 140 L/h | metabolized in incubations without co-factor mix | 0.000198 s⁻¹ | 13.1 µL/min/mg | 11.9 µL/min/mg |  |  |  |  |  |  |
| CC(CN)c1ccccc1 (stereo not drawn) [β-Methylphenethylamine, β-methylphenethylamine] | – (compounds with a dash (-) did not activate the receptors in vitro at concentrations ≤ 300 µM) | – (compounds with a dash (-) did not activate the receptors in vitro at concentrations ≤ 300 µM) | – (compounds with a dash (-) did not activate the receptors in vitro at concentrations ≤ 300 µM) | 139 L/h | metabolized in incubations without co-factor mix | 0.000403 s⁻¹ | 13 µL/min/mg | 12.1 µL/min/mg |  |  |  |  |  |  |
